# Data from US5672710A, “Sulfides, sulfoxides and sulfones disubstituted with a tetrahydronaphthalenyl, chromanyl, thiochromanyl or tetrahydroquinolinyl and substituted phenyl or heteroaryl group, having retinoid-like biological activity” (priority 1995, dated 1997).
# pEC50, pKd: −log10 of the molar value.
# Assays:
# [1] = target: T1, RARγ (Homo sapiens, UniProt P13631); experiment: Holoreceptor transactivation assay, RARγ; assay type: cell-based; conditions: CV-1; CV1 cells; relative to all trans retinoic acid; read-out: Transactivation Assay Efficacy (% of RA activity), RARγ
# T1 construct: expressed in transfected cells; host or cells: CV1
# T1 sequence (P13631 1-454): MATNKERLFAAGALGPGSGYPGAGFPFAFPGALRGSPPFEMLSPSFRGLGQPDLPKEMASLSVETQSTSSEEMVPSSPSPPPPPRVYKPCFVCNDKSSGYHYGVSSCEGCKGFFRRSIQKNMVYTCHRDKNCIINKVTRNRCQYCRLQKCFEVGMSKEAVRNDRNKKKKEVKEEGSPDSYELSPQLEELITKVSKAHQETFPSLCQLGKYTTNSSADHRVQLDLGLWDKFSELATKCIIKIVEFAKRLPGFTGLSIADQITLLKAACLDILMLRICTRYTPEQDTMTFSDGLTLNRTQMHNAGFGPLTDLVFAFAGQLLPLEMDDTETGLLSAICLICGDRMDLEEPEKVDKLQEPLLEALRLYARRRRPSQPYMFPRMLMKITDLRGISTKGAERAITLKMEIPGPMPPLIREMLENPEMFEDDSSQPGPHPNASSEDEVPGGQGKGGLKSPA
# Source text: (§1) A holoreceptor transactivation assay and a ligand binding assay which measure the ability of the compounds of the invention to bind to the several retinoid receptor subtypes, respectively, are described in published PCT Application No. WO W093/11755 (particularly on pages 30-33 and 37-41) published on Jun. 24, 1993, the specification of which is also incorporated herein by reference. A description of the holoreceptor transactivation assay is also provided below.
# (§2) CV1 cells (5,000 cells/well) were transfected with an RAR reporter plasmid MTV-TREp-LUC (50 ng) along with one of the […] expression vectors (10 ng) in an automated 96-well format by the calcium phosphate procedure of Heyman et al. Cell 68, 397-406. (8). For RXRα and RXR.GAMMA. transactivation assays, an RXR-responsive reporter plasmid CRBPII-tk-LUC (50 ng) along with the appropriate RXRexpression vectors (10 ng) was used substantially as described by Heyman et al. above, and Allegretto et al. J. Biol. Chem. 268, 26625-26633. For RXRβ transactivation assays, an RXR-responsive reporter plasmid CPRE-tk-LUC ([…]) along with RXRβ expression vector ([…]) was used as described in above. These reporters contain DRI elements from human CRBPII and certain DRI elements from promoter, respectively. (see Mangelsdorf et al. The Retinoids: Biology, Chemistry and Medicine, pp 319-349, Raven Press Ltd., New York and Heyman et al., cited above) (1, 8). A β-galactosidase (50 ng) expression vector was used as an internal control in the transfections to normalize for variations in transfection efficiency. The cells were transfected in triplicate for 6 hours, followed by incubation with retinoids for 36 hours, and the extracts were assayed for luciferase and β-galactosidase activities. The detailed experimental procedure for holoreceptor transactivations has been described in Heyman et al. above, and Allegretto et al. cited above. The results obtained in this assay in connection with examplary compounds in accordance with the present invention are expressed in EC50 numbers, as they are also in the chimeric receptor transactivation assay. The Heyman et al. Cell 68, 397-406, Allegretto et al. J. Biol. Chem. 268, 26625-26633, and Mangelsdorf et al. The Retinoids: Biology, Chemistry and Medicine, pp 319-349, Raven Press Ltd., New York, are expressly incorporated herein by reference. The results of ligand binding assay are expressed in Kd numbers. (See Cheng et al. Biochemical Pharmacology Vol. 22 pp 3099-3108, expressly incorporated herein by reference.)
# [2] = target: T2, RXRα (Homo sapiens, UniProt P19793); experiment: Holoreceptor transactivation assay, RXRα; assay type: cell-based; conditions: CV1 cells; for Emax: CV-1, relative to all trans retinoic acid, read-out: Transactivation Assay Efficacy (% of RA activity), RXRα; for pEC50: 36 hours
# T2 construct: expressed in transfected cells; host or cells: CV1
# T2 sequence (P19793 1-462): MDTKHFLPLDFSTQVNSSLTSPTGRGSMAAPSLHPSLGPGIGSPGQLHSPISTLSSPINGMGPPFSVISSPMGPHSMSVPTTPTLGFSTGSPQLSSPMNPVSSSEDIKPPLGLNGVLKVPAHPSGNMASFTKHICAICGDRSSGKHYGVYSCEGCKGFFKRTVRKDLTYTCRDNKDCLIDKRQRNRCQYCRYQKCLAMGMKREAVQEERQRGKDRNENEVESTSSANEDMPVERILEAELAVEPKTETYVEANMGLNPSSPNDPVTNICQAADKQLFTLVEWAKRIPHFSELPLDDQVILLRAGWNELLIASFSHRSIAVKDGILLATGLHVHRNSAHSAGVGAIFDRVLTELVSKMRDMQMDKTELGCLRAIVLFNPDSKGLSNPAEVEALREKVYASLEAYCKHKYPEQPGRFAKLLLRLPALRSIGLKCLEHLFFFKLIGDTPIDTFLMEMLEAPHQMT
# Source text: as §1, §2
# [3] = target: T3, RXRγ (Mus musculus, UniProt P28705); experiment: Ligand binding assay, RXRγ
# T3 construct: expressed in transfected cells; host or cells: CV1
# T3 sequence (P28705 1-463): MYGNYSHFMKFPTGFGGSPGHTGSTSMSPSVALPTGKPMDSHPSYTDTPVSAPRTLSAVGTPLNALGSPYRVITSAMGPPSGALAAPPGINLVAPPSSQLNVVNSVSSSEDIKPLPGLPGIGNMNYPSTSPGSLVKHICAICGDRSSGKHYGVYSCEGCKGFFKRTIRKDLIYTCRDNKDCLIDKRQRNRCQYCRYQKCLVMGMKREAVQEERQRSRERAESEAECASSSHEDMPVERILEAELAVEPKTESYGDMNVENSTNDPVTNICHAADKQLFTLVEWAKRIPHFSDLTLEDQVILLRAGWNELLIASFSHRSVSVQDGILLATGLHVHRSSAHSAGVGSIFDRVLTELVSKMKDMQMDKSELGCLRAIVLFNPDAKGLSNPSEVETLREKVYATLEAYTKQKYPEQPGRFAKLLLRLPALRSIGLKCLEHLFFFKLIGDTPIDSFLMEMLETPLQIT
# Source text: as §1, §2
Emax [1] [%],Emax [2] [%],pKd [3],pEC50 [2],SMILES
0,32,< 6.00,5.52,"CC1(C)CCC(C)(C)c2cc(S(=O)(=O)c3ccc(C(=O)O)cc3)ccc21 [Compound 5, 4-(5,6,7,8-tetrahydro-5,5,8,8-tetramethyl-2-naphthylsulfonyl)benzoic acid]"
11,81,6.52,6.55,"Cc1cc2c(cc1Sc1ccc(C(=O)O)cc1)C(C)(C)CCC2(C)C [Compound 7, 4-(5,6,7,8-tetrahydro-3,5,5,8,8-pentamethyl-2-Daphthylthio)benzoic acid]"
0,55,< 6.00,5.55,"Cc1cc2c(cc1S(=O)(=O)c1ccc(C(=O)O)cc1)C(C)(C)CCC2(C)C [Compound 11, 4-(5,6,7,8-tetrahydro-3,5,5,8,8-pentamethyl-2-naphthylsulfonyl)benzoic acid]"
7,85,< 6.00,5.64,"Cc1cc2c(cc1Sc1ncc(C(=O)O)s1)C(C)(C)CCC2(C)C [Compound 15, 2-(5,6,7,8-Tetrahydro-3,5,5,8,8-pentamethyl-2-naphthylthio)-5-thiazolecarboxylic acid]"

# Further lines, the molecule ahead of its results:
SMILES,Emax [1] [%],Emax [2] [%],pKd [3],pEC50 [2]
CC1(C)CCC(C)(C)c2cc(Sc3ccc(C(=O)O)cc3)ccc21 [Compound 2],37,51,–,–
"Cc1cc2c(cc1[S+]([O-])c1ccc(C(=O)O)cc1)C(C)(C)CCC2(C)C (stereo not shown) [Compound 9, 4-(5,6,7,8-tetrahydro-3,5,5,8,8-pentamethyl-2-naphthylsulfoxy)benzoic acid]",3,17,< 6.00,–
Cc1cc2c(cc1Sc1ccc(C(=O)O)cn1)C(C)(C)CCC2(C)C [Compound 13],0,91,7.14,7.27
